The results in this text go back to patent publication US10391095B2, “DNA-PK inhibitors” (Vertex Pharmaceuticals Incorporated, priority 2012, dated 2019).

The target in this test is DNA-PK (Homo sapiens, UniProt P78527). Briefly: DNA-PK inhibition assay (radiometric, 33P-ATP). To be noted: 100 μM ATP, competitive tight-binding fit. It is filed as biochemical. In outline: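 Approx. 6 nM DNA-PK with 10 µg/mL sheared dsDNA, 0.8 mg/mL peptide substrate and 100 µM 33P-ATP in HEPES pH 7.5, 10 mM MgCl2; 45 min, phosphoric acid quench. Phosphopeptide captured on filter plates and counted by scintillation; Ki from a competitive tight-binding model fit.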

Where only a bound is given, the exact number is not on record here.

Turning to `CNC(=O)c1ccnc2c([C@H](C)CNc3cc(-c4ccc(=O)n(C)c4)ncn3)cccc12` [Compound 655], the Ki – broadly, a dissociation constant, usually derived from enzyme kinetics or from competition with a known ligand – was less than 30 nM.

Regarding `CNC(=O)c1ccnc2c([C@H](C)CNc3cc(-c4cnc(NC)c(C)c4)ncn3)cccc12` [Compound 961], the Ki was less than 30 nM.

`CNC(=O)c1ccnc2c([C@H](C)CNc3cc(-c4cnc(C(C)C)nc4)ncn3)cccc12` [Compound 849] returned a Ki of less than 30 nM.

For the molecule `CNC(=O)c1ccnc2c([C@H](C)CNc3cc(-c4cnc(C(C)(C)O)c(F)c4)ncn3)cccc12` [Compound 822], the Ki was less than 30 nM.

For the molecule `Cc1ccc(-c2cc(NCC(C)c3cncc4cccnc34)ncn2)cn1` (stereo not shown) [Compound 414], the Ki is less than 30 nM.

In the case of `CNC(=O)c1ccnc2c([C@H](C)CNc3cc(-c4cnc(OC)c(C)c4)ncn3)cccc12` [Compound 945], the Ki is less than 30 nM.

`CNC(=O)c1ccnc2c([C@H](C)CNc3cc(-c4ccc(C(=O)NCCCN(C)C)cc4)ncn3)cccc12` [Compound 751] showed an inhibition constant Ki of less than 30 nM.

`COc1sccc1C(C)CNc1cc(-c2cnc3c(cnn3CCO)c2)ncn1` (stereo not shown) [Compound 259] gave an inhibition constant Ki of less than 30 nM.

On to `CNC(=O)c1c(F)cnc2c([C@H](C)CNc3cc(-c4ccc(C5CCC5)nc4)ncn3)cccc12` [Compound 855], for which the Ki was less than 30 nM.

In turn, `CNC(=O)c1c(F)cnc2c([C@H](C)CNc3cc(-c4ccc(C(C)(C)O)nc4)ncn3)cccc12` [Compound 866] yielded a Ki of less than 30 nM.

Consider `CC(=O)Nc1cnc2c([C@H](C)CNc3cc(-c4ccc(C)nc4)ncn3)cccc2c1` [Compound 742], for which the inhibitory constant (Ki) is less than 30 nM.

In turn, `CNC(=O)c1ccc(C(C)CNc2cc(-c3cn(C4COC4)c4ncc(F)cc34)ncn2)c(OC)c1` (stereo not shown) [Compound 449] gave a Ki of less than 30 nM.

In turn, `CNC(=O)c1ccnc2c([C@H](C)CNc3cc(-c4cncc(COC)c4)ncn3)cccc12` [Compound 840] displayed a Ki of less than 30 nM.

Molecule `CNC(=O)c1c(F)cnc2c([C@H](C)CNc3cc(-c4ccc(C#N)nc4)ncn3)cccc12` [Compound 901] came in with a Ki of less than 30 nM.

`CNC(=O)c1ccnc2c([C@H](C)CNc3cc(-c4cnc5c(c4)CN(C(C)=O)CC5)ncn3)cccc12` [Compound 815] gave a Ki of less than 30 nM.

Molecule `Cc1cc([C@H](C)CNc2cc(-c3cnc4c(cnn4CCO)c3)ncn2)c2c(n1)CCO2` [Compound 505] registered a Ki of less than 30 nM.

`CNC(=O)c1ccnc2c([C@H](C)CNc3cc(-c4ccc(C5(N)CC5)nc4)ncn3)cccc12` [Compound 939]: the Ki was less than 30 nM.

As for `CCOc1cc(-c2cc(NC[C@@H](C)c3ccc(F)c4c(C(=O)NC)ccnc34)ncn2)cnc1OCC` [Compound 905], the inhibition constant Ki is less than 30 nM.

In the case of `CNC(=O)c1ccc([C@H](C)CNc2cc(-c3ccc(NC(C)CO)nc3)ncn2)c(OC)c1` (single isomer, unassigned) [Compound 357], the Ki was less than 30 nM.

On to `[2H]c1nc(C)nc([2H])c1-c1cc(NC[C@@H](C)c2cccc3c(C(=O)NC)ccnc23)ncn1` [Compound 844, (S)—N-methyl-8-(1-((2′-methyl-4′,6′-dideutero-[4,5′-bipyrimidin]-6-yl)amino)propan-2-yl)quinoline-4-carboxamide], for which the inhibitory constant (Ki) was less than 30 nM.

`CNC(=O)c1ccc([C@H](C)CNc2cc(-c3ccc4c(cnn4C)c3)ncn2)c(OC)c1` [Compound 293] yielded an inhibition constant (Ki) of less than 30 nM.

As for `CNC(=O)c1ccc([C@H](C)CNc2cc(-c3ccc4c(c3)CCN4C)ncn2)c(OC)c1` [Compound 342], the Ki was less than 30 nM.

Regarding `CNC(=O)c1ccc([C@H](C)CNc2cc(-c3ccc(C)nc3)ncn2)c2ncccc12` [Compound 485], the inhibition constant (Ki) is less than 30 nM.

With `CNC(=O)c1ccc([C@H](C)CNc2cc(-c3cnc(NC)nc3)ncn2)c(OC)c1` [Compound 304], the inhibition constant Ki was less than 30 nM.

Take `CNC(=O)c1ccnc2c([C@H](C)CNc3cc(-c4ccc(C)nc4)ncn3)cc(F)cc12` [Compound 562]: the Ki was less than 30 nM.

Molecule `CNC(=O)c1ccnc2c([C@H](C)CNc3cc(-c4ccc(NC5CCN(C)CC5)nc4)ncn3)cccc12` [Compound 635] gave an inhibitory constant (Ki) of less than 30 nM.

The molecule `C[C@H](CNc1cc(-c2ccc(NC3CC3)nc2)ncn1)c1ccnc2c1OCCO2` [Compound 465] came in with a Ki of less than 30 nM.

For the molecule `CNC(=O)c1ccc(C(C)CNc2cc(-c3ccc4ncccc4c3)ncn2)c(OC)c1` (stereo not shown) [Compound 256], the inhibition constant (Ki) was less than 30 nM.

As for `CCOc1ccccc1CCNc1cc(-c2ccc(C)nc2)ncn1` [Compound 57], the Ki is less than 30 nM.

Molecule `CCOc1ncc(-c2cc(NC[C@@H](C)c3ccccc3OC)ncn2)cn1` [Compound 125] gave a Ki of less than 30 nM.

Molecule `COCCn1ncc2cc(-c3cc(NCC(C)c4ccsc4OC)ncn3)cnc21` (stereo not shown) [Compound 258] showed an inhibition constant (Ki) of less than 30 nM.

With `CNCCNc1ccc(-c2cc(NC[C@@H](C)c3ccccc3OC)ncn2)cn1` [Compound 205], the Ki was less than 30 nM.

Molecule `CNC(=O)c1ccnc2c([C@H](C)CNc3cc(N4CCn5ccnc5C4)ncn3)cccc12` [Compound 741] came in with a Ki of less than 30 nM.

`COc1cscc1C(C)CNc1cc(-c2ccc(N3CCN(C)CC3)nc2)ncn1` (stereo not shown) [Compound 146]: the Ki was less than 30 nM.

`CNC(=O)c1ccnc2c([C@H](C)CNc3cc(-c4ccc5c(c4)CCN(C(=O)COC)C5)ncn3)cccc12` [Compound 835] had a Ki of less than 30 nM.

`CNC(=O)c1ccc([C@H](C)CNc2cc(-c3ccc(N4CCC4)nc3)ncn2)c(OC)c1` [Compound 395] gave a Ki of less than 30 nM.

Consider `C[C@H](CNc1cc(-c2ccc(C(=O)NCCC#N)cc2)ncn1)c1ccnc2c1OCC2` [Compound 432], for which the Ki was less than 30 nM.

Turning to `CNC(=O)c1ccnc2c([C@H](C)CNc3cc(-c4ccc(NCC(=O)N(C)C)nc4)ncn3)cccc12` [Compound 633], the Ki is less than 30 nM.

Take `CNC(=O)c1ccc([C@H](C)CNc2cc(-c3ccc4c(ccn4C)c3)ncn2)c(OC)c1` [Compound 268]: the Ki was less than 30 nM.

As to `CCc1cc(-c2cc(NC[C@@H](C)c3cccc4c(C(=O)NC)ccnc34)ncn2)cc(CC)n1` [Compound 953], the inhibition constant (Ki) is less than 30 nM.

With `CNC(=O)c1c(F)cnc2c([C@H](C)CNc3cc(-c4cnc(C5CCC5)nc4)ncn3)cccc12` [Compound 856], the inhibition constant Ki was less than 30 nM.

`CNC(=O)c1ccnc2c([C@H](C)CNc3cc(-c4ccc(CC(C)C)nc4)ncn3)cccc12` [Compound 816] yielded an inhibitory constant (Ki) of less than 30 nM.

`Cc1ccc(-c2cc(NCC(C)c3cncc4c3OCCC4)ncn2)cn1` (stereo not shown) [Compound 451] had a Ki of less than 30 nM.

`COc1cscc1C(C)CNc1cc(-c2cnc3c(cnn3C3CCN(C)CC3)c2)ncn1` (stereo not shown) [Compound 228] yielded a Ki of less than 30 nM.

`CNC(=O)c1c(F)cnc2c([C@H](C)CNc3cc(-c4cnc(OC5CCC5)nc4)ncn3)cccc12` [Compound 981] gave an inhibition constant Ki of less than 30 nM.

`CNC(=O)c1ccnc2c([C@H](C)CNc3cc(-c4ccc(C#N)nc4)ncn3)cccc12` [Compound 613] yielded an inhibitory constant (Ki) of less than 30 nM.

In the case of `CC(CNc1cc(-c2ccc(N3CCN(C)CC3)nc2)ncn1)c1cccc2cccnc12` (stereo not shown) [Compound 236], the Ki was less than 30 nM.

`Cc1ccc(-c2cc(NCC(C)c3ccccc3OCCCO)ncn2)cn1` (stereo not shown) [Compound 182] showed an inhibitory constant (Ki) of less than 30 nM.

As to `COc1ccccc1CCNc1cc(-c2cnc3c(cnn3CCC(C)C)c2)ncn1` [Compound 45], the Ki was less than 30 nM.

In the case of `C[C@H](CNc1cc(-c2cnc(NCCO)nc2)ncn1)c1ccnc2c1OCCO2` [Compound 457], the Ki was less than 30 nM.

`CNC(=O)c1ccc(C(C)CNc2cc(-c3cnc4c(cnn4CCC#N)c3)ncn2)c(OC)c1` (stereo not shown) [Compound 442] registered an inhibition constant Ki of less than 30 nM.

`COc1ccccc1[C@H](C)CNc1cc(-c2ccnc(NCC(O)CO)c2)ncn1` (single isomer, unassigned) [Compound 208]: the inhibition constant Ki was less than 30 nM.

`CNC(=O)c1ccnc2c([C@H](C)CNc3cc(-c4cnc(OC)c(COC)c4)ncn3)cccc12` [Compound 944]: the inhibitory constant (Ki) is less than 30 nM.

As to `CNC(=O)c1ccnc2c([C@H](C)CNc3cc(-c4ccc(C(C)(C)O)nc4)ncn3)ccc(F)c12` [Compound 865], the Ki is less than 30 nM.

The molecule `CNC(=O)c1ccnc2c([C@H](C)CNc3cc(-c4ccc5c(c4)CN(C(C)=O)CC5)ncn3)cccc12` [Compound 804] yielded a Ki of less than 30 nM.

The molecule `CNC(=O)c1ccnc2c([C@H](C)CNc3cc(-c4cnc(C#N)c(OC)c4)ncn3)cccc12` [Compound 924] yielded a Ki of less than 30 nM.

On to `COc1ncc(-c2cc(NC[C@@H](C)c3ccnc4c3OCCO4)ncn2)cc1N` [Compound 519], for which the Ki was less than 30 nM.

Regarding `Cc1ccc(-c2cc(NC[C@@H](C)c3ccccc3OC3CC3)ncn2)cn1` [Compound 107], the inhibition constant (Ki) is less than 30 nM.

With `CNC(=O)c1ccnc2c([C@H](C)CNc3cc(-c4cnc(OC(C)C)c(C)c4)ncn3)cccc12` [Compound 947], the Ki is less than 30 nM.

Turning to `CNC(=O)c1ccc(C(C)CNc2cc(-c3ccc(OC)nc3)ncn2)c(OC)c1` (stereo not shown) [Compound 320], the Ki was less than 30 nM.

Molecule `CNC(=O)c1ccnc2c([C@H](C)CNc3cc(-c4ccn(C)c(=O)c4)ncn3)cccc12` [Compound 656] yielded a Ki of less than 30 nM.

With `CNC(=O)c1ccnc2c([C@H](C)CNc3cc(-c4ccc(CN5CCN(C)CC5)nc4)ncn3)cccc12` [Compound 670], the Ki is less than 30 nM.

Regarding `CNC(=O)c1ccnc2c([C@H](C)CNc3cc(-c4ccc(C5(O)COC5)cc4)ncn3)cccc12` [Compound 809], the inhibitory constant (Ki) was less than 30 nM.

`CCNc1ccc(-c2cc(NC[C@@H](C)c3ccc(F)c4c(C(=O)NC)ccnc34)ncn2)cn1` [Compound 922] gave an inhibitory constant (Ki) of less than 30 nM.

`CNC(=O)c1ccnc2c([C@H](C)CNc3cc(-c4cnc(N)c(C)c4)ncn3)cccc12` [Compound 948] came in with an inhibitory constant (Ki) of less than 30 nM.

Regarding `CNC(=O)c1ccnc2c([C@H](C)CNc3cc(-c4cc(F)c(F)c(F)c4)ncn3)cccc12` [Compound 873], the inhibitory constant (Ki) is less than 30 nM.

Consider `CCOc1cc(-c2cc(NC[C@@H](C)c3cccc4c(C(=O)NC)c(F)cnc34)ncn2)cnc1OCC` [Compound 897], for which the inhibition constant (Ki) was less than 30 nM.
